{"source": "PubChem BioAssay AID1259409", "about": "(Chemical Carcinogenesis Research Information System (CCRIS), 2018)", "origin": "cited, not measured here", "tested_on": "rodent chemically induced tumor inhibition, incidence and multiplicity", "assay": "CCRIS tumor inhibitor studies", "details": "Promoter: NONE USED"}
{"compound": "CC1=C(/C=C/C(C)=C/C=C/C(C)=C/C=C/C=C(C)/C=C/C=C(C)/C=C/C2=C(C)C(=O)CCC2(C)C)C(C)(C)CCC1=O", "values": [{"measurement": "tumour outcome (control, treated, inhibition, significance)", "setting": "Carcinogen: 4-NITROQUINOLINE-1-OXIDE, 56-57-5, Dose [Inhibitor]: 0, 100 PPM IN DIET FOR 10 WK BEGINNING PRIOR TO CARCINOGEN TREATMENT (STUDY DURATION: 32 WK), Route [Inhibitor]: ORAL, Species: RAT, Strain/Sex: F344/MALE, Target Tissue: Type of Lesion: TONGUE: PAPILLOMA, Dose [Carcinogen]: 20 PPM IN DRINKING WATER FOR 8 WK", "value": "4/24 (17%), 0/17 (0%), 100%, p<0.05"}, {"measurement": "tumour outcome (control, treated, inhibition, significance)", "setting": "Carcinogen: 4-NITROQUINOLINE-1-OXIDE, 56-57-5, Dose [Inhibitor]: 0, 100 PPM IN DIET FOR 10 WK BEGINNING PRIOR TO CARCINOGEN TREATMENT (STUDY DURATION: 32 WK), Route [Inhibitor]: ORAL, Species: RAT, Strain/Sex: F344/MALE, Target Tissue: Type of Lesion: TONGUE: SQUAMOUS CELL CARCINOMA, Dose [Carcinogen]: 20 PPM IN DRINKING WATER FOR 8 WK", "value": "13/24 (54%), 0/17 (0%), 100%, p<0.05"}, {"measurement": "tumour outcome (control, treated, inhibition, significance)", "setting": "Carcinogen: 4-NITROQUINOLINE-1-OXIDE, 56-57-5, Dose [Inhibitor]: 0, 100 PPM IN DIET FOR 22 WK BEGINNING 1 WK POST CARCINOGEN TREATMENT (STUDY DURATION: 32 WK), Route [Inhibitor]: ORAL, Species: RAT, Strain/Sex: F344/MALE, Target Tissue: Type of Lesion: TONGUE: PAPILLOMA, Dose [Carcinogen]: 20 PPM IN DRINKING WATER FOR 8 WK", "value": "4/24 (17%), 1/19 (5%), 71%, p<0.05"}, {"measurement": "tumour outcome (control, treated, inhibition, significance)", "setting": "Carcinogen: 4-NITROQUINOLINE-1-OXIDE, 56-57-5, Dose [Inhibitor]: 0, 100 PPM IN DIET FOR 22 WK BEGINNING 1 WK POST CARCINOGEN TREATMENT (STUDY DURATION: 32 WK), Route [Inhibitor]: ORAL, Species: RAT, Strain/Sex: F344/MALE, Target Tissue: Type of Lesion: TONGUE: SQUAMOUS CELL CARCINOMA, Dose [Carcinogen]: 20 PPM IN DRINKING WATER FOR 8 WK", "value": "13/24 (54%), 1/19 (5%), 91%, p<0.05"}, {"measurement": "tumour outcome (control, treated, inhibition, significance)", "setting": "Carcinogen: 7,12-DIMETHYLBENZ[A]ANTHRACENE, 57-97-6, Dose [Inhibitor]: 0, 1130 MG/KG OF DIET FROM DAY 34 TO 54 OF AGE (STUDY DURATION: 200 D), Route [Inhibitor]: ORAL, Species: RAT, Strain/Sex: SPRAGUE-DAWLEY/FEMALE, Target Tissue: Type of Lesion: MAMMARY GLAND: ADENOCARCINOMA, Dose [Carcinogen]: 15 MG/RAT ONCE AT 55 D OF AGE", "value": "93%, 80%, 14%, not significant"}, {"measurement": "tumour outcome (control, treated, inhibition, significance)", "setting": "Carcinogen: 7,12-DIMETHYLBENZ[A]ANTHRACENE, 57-97-6, Dose [Inhibitor]: 0, 1130 MG/KG OF DIET FROM DAY 34 TO 54 OF AGE (STUDY DURATION: 200 D), Route [Inhibitor]: ORAL, Species: RAT, Strain/Sex: SPRAGUE-DAWLEY/FEMALE, Target Tissue: Type of Lesion: MAMMARY GLAND: BENIGN TUMORS, Dose [Carcinogen]: 15 MG/RAT ONCE AT 55 D OF AGE", "value": "28%, 30%, -7%, not calculated"}, {"measurement": "tumour outcome (control, treated, inhibition, significance)", "setting": "Carcinogen: 7,12-DIMETHYLBENZ[A]ANTHRACENE, 57-97-6, Dose [Inhibitor]: 0, 3390 MG/KG OF DIET FROM DAY 34 TO 54 OF AGE (STUDY DURATION: 200 D), Route [Inhibitor]: ORAL, Species: RAT, Strain/Sex: SPRAGUE-DAWLEY/FEMALE, Target Tissue: Type of Lesion: MAMMARY GLAND: ADENOCARCINOMA, Dose [Carcinogen]: 15 MG/RAT ONCE AT 55 D OF AGE", "value": "93%, 67%, 28%, p<0.05"}, {"measurement": "tumour outcome (control, treated, inhibition, significance)", "setting": "Carcinogen: 7,12-DIMETHYLBENZ[A]ANTHRACENE, 57-97-6, Dose [Inhibitor]: 0, 3390 MG/KG OF DIET FROM DAY 34 TO 54 OF AGE (STUDY DURATION: 200 D), Route [Inhibitor]: ORAL, Species: RAT, Strain/Sex: SPRAGUE-DAWLEY/FEMALE, Target Tissue: Type of Lesion: MAMMARY GLAND: BENIGN TUMORS, Dose [Carcinogen]: 15 MG/RAT ONCE AT 55 D OF AGE", "value": "28%, 40%, -43%, not calculated"}, {"measurement": "tumour outcome (control, treated, inhibition, significance)", "setting": "Carcinogen: 7,12-DIMETHYLBENZ[A]ANTHRACENE, 57-97-6, Dose [Inhibitor]: 140 UG (1.5 MG/KG BW) IN 0.4 ML MINERAL OIL 3/WK FOR 28 WK (STUDY DURATION: 28 WK), Route [Inhibitor]: ORAL, Species: HAMSTER, Strain/Sex: SYRIAN/MALE, Target Tissue: Type of Lesion: SKIN: CARCINOMA, Dose [Carcinogen]: 0.1% IN HEAVY MINERAL OIL APPLIED TO BUCCAL POUCH 3/WK FOR 28 WK", "value": "20/20 (100%), 2/20 (10%), 90%, not calculated"}, {"measurement": "tumour outcome (control, treated, inhibition, significance)", "setting": "Carcinogen: 7,12-DIMETHYLBENZ[A]ANTHRACENE, 57-97-6, Dose [Inhibitor]: 250 MG/KG IN DIET FOR 6 WK PRIOR TO CARCINOGEN DOSE AND CONTINUING FOR 21-22 WK POST CARCINOGEN DOSE (STUDY DURATION: 28, Route [Inhibitor]: ORAL, Species: RAT, Strain/Sex: SPRAGUE-DAWLEY/MALE, Target Tissue: Type of Lesion: SALIVARY GLAND: TUMOR, Dose [Carcinogen]: 1 MG IN 20 µL OLIVE OIL INJECTED INTO SUBMANDIBULAR GLAND ONCE", "value": "20/28 (71%), 21/30 (70%), 1%, not significant"}, {"measurement": "tumour outcome (control, treated, inhibition, significance)", "setting": "Carcinogen: BENZO[A]PYRENE, 50-32-8, Dose [Inhibitor]: 0, 4.7 MICROMOLAR/D IN 0.1 ML PEANUT OIL BEGINNING 2 WK PRIOR TO CARCINOGEN TREATMENT AND CONTINUING TO 2 WK POST CARCIN, Route [Inhibitor]: GAVAGE, Species: MOUSE, Strain/Sex: SWISS/FEMALE, Target Tissue: Type of Lesion: FORESTOMACH: TUMOR, Dose [Carcinogen]: 1 MG 2/WK IN 0.1 ML PEANUT OIL FOR 4 WK", "value": "20/20 (100%), 4/20 (20%), 80%, p<0.001"}, {"measurement": "tumour outcome (control, treated, inhibition, significance)", "setting": "Carcinogen: N-BUTYL-N-(4-HYDROXYBUTYL)NITROSAMINE, 3817-11-6, Dose [Inhibitor]: 0, 0.1% IN DIET BEGINNING 5 WK PRIOR TO CARCINOGEN TREATMENT AND CONTINUING FOR DURATION OF STUDY (STUDY DURATION: 7 MO), Route [Inhibitor]: ORAL, Species: MOUSE, Strain/Sex: B6D2F1/MALE, Target Tissue: Type of Lesion: BLADDER: CARCINOMA IN SITU, Dose [Carcinogen]: 5 MG IN SALINE SOLUTION 2/WK FOR 9 WK", "value": "7/24 (29%), 5/24 (21%), 28%, not calculated"}, {"measurement": "tumour outcome (control, treated, inhibition, significance)", "setting": "Carcinogen: N-BUTYL-N-(4-HYDROXYBUTYL)NITROSAMINE, 3817-11-6, Dose [Inhibitor]: 0, 0.1% IN DIET BEGINNING 5 WK PRIOR TO CARCINOGEN TREATMENT AND CONTINUING FOR DURATION OF STUDY (STUDY DURATION: 7 MO), Route [Inhibitor]: ORAL, Species: MOUSE, Strain/Sex: B6D2F1/MALE, Target Tissue: Type of Lesion: BLADDER: TRANSITIONAL CELL CARCINOMA, Dose [Carcinogen]: 5 MG IN SALINE SOLUTION 2/WK FOR 9 WK", "value": "8/24 (33%), 10/24 (42%), -27%, not calculated"}, {"measurement": "tumour outcome (control, treated, inhibition, significance)", "setting": "Carcinogen: N-BUTYL-N-(4-HYDROXYBUTYL)NITROSAMINE, 3817-11-6, Dose [Inhibitor]: 0, 0.1% IN DIET BEGINNING 5 WK PRIOR TO CARCINOGEN TREATMENT AND CONTINUING FOR DURATION OF STUDY (STUDY DURATION: 7 MO), Route [Inhibitor]: ORAL, Species: MOUSE, Strain/Sex: B6D2F1/MALE, Target Tissue: Type of Lesion: BLADDER: TUMOR, Dose [Carcinogen]: 5 MG IN SALINE SOLUTION 2/WK FOR 9 WK", "value": "15/24 (63%), 15/24 (63%), 0%, not significant"}, {"measurement": "tumour outcome (control, treated, inhibition, significance)", "setting": "Carcinogen: N-BUTYL-N-(4-HYDROXYBUTYL)NITROSAMINE, 3817-11-6, Dose [Inhibitor]: 0, 50 PPM IN DRINKING WATER FOR 2O WK BEGINNING 1 WK POST CARCINOGEN TREATMENT (STUDY DURATION: 41 WK), Route [Inhibitor]: ORAL, Species: MOUSE, Strain/Sex: ICR/MALE, Target Tissue: Type of Lesion: URINARY BLADDER: CARCINOMA, Dose [Carcinogen]: 250 PPM IN DRINKING WATER FOR 20 WK", "value": "15/36 (42%), 10/31 (33%), 21%, not significant"}, {"measurement": "tumour outcome (control, treated, inhibition, significance)", "setting": "Carcinogen: N-BUTYL-N-(4-HYDROXYBUTYL)NITROSAMINE, 3817-11-6, Dose [Inhibitor]: 0, 50 PPM IN DRINKING WATER FOR 20 WK BEGINNING 1 WK POST CARCINOGEN TREATMENT (STUDY DURATION: 41 WK), Route [Inhibitor]: ORAL, Species: MOUSE, Strain/Sex: ICR/MALE, Target Tissue: Type of Lesion: URINARY BLADDER: PAPILLOMA, Dose [Carcinogen]: 250 PPM IN DRINKING WATER FOR 20 WK", "value": "2/36 (6%), 3/31 (10%), -67%, not significant"}, {"measurement": "tumour outcome (control, treated, inhibition, significance)", "setting": "Carcinogen: N-METHYL-N-NITROSOUREA, 684-93-5, Dose [Inhibitor]: 0, 1130 MG/KG OF DIET BEGINNING 2 D POST CARCINOGEN DOSE AND CONTINUING FOR DURATION OF STUDY (STUDY DURATION: 90 D), Route [Inhibitor]: ORAL, Species: RAT, Strain/Sex: SPRAGUE-DAWLEY/FEMALE, Target Tissue: Type of Lesion: MAMMARY GLAND: ADENOCARCINOMA, Dose [Carcinogen]: 45 MG/KG BW ONCE AT 50 D OF AGE", "value": "100%, 100%, 0%, not significant"}, {"measurement": "tumour outcome (control, treated, inhibition, significance)", "setting": "Carcinogen: N-METHYL-N-NITROSOUREA, 684-93-5, Dose [Inhibitor]: 0, 3390 MG/KG OF DIET BEGINNING 2 D POST CARCINOGEN DOSE AND CONTINUING FOR DURATION OF STUDY (STUDY DURATION: 90 D), Route [Inhibitor]: ORAL, Species: RAT, Strain/Sex: SPRAGUE-DAWLEY/FEMALE, Target Tissue: Type of Lesion: MAMMARY GLAND: ADENOCARCINOMA, Dose [Carcinogen]: 45 MG/KG BW ONCE AT 50 D OF AGE", "value": "100%, 90%, 10%, not calculated"}]}
